Patent publication US20240391800A1, “HYPERSALINE DESALINATION USING IONIC LIQUIDS AND LOW-TEMPERATURE HEAT” (UNIVERSITY OF NOTRE DAME DU LAC, priority 2021, published 2024)
“And” between values parts separate entries of the source, which are not always exact repeats. Identical values can stand only once. One block for each compound: values may come before it.

Tests used:
[1] = Solubility of ionic liquid in water (LC-MS of [Tf2N]-); conditions: for Solubility in H2O: Table 7 / Example 2; for Solubility in H2O (ppm): IL in water / residual in recovered water
Procedure: Samples with different IL/water ratios are mixed in beaker with stirring speed of 300 rpm for 10 hours, and then a 3-hour sitting period was allowed to guarantee thermodynamic equilibrium of dissolution. Because the ILs tested have higher density than water, the solution in the top layer was extracted as the sample. […] The intensity of a certain ion acquired by the mass spectrometer proportionally reflected the concentration of this kind of ion in the water solution.

[2] = Directional solvent extraction (DSE) desalination cycle, moderate / seawater-salinity NaCl feed; conditions: seawater salinity feedwater (3.5 wt %, 14,000 ppm Na+)
Procedure: (§1) The mixture was maintained at that temperature for ˜10 minutes for phase separation, expecting the brine to separate from the IL. The IL phase, which contained pure water dissolved within it, was collected, and cooled down to room temperature, precipitating out the fresh water due to lowered solubility in the IL. The separation of these two phases was facilitated by a centrifuge at 3000 rpm. The amount of recovered water was used to calculate the yield, and the water was also characterized for contents of NaCl ions and residual ILs to verify directional solubilities. The NaCl ion concentration was measured using Perkin Elmer Optima 8000 ICP-OES and the IL content is measured using Waters TQD triple mass spectrometer coupled to an Acquity ultrahigh pressure liquid chromatography system.
All Na^+ concentration measurements were performed using Perkin Elmer Optima 8000 ICP-OES. Since all water samples in the experiment were deionized water, it was rational to assume that the molar concentration of Na^+ was equal to that of NaCl. […] A set of calibration curves of conductivity versus Na^+ ion concentration was created prior to the measurements. […] Samples with different IL/water ratios are mixed in beaker with stirring speed of 300 rpm for 10 hours, and then a 3-hour sitting period was allowed to guarantee thermodynamic equilibrium of dissolution. Because the ILs tested have higher density than water, the solution in the top layer was extracted as the sample. […] The intensity of a certain ion acquired by the mass spectrometer proportionally reflected the concentration of this kind of ion in the water solution.
The DS performance in a DSE desalination cycle was evaluated for the assembled ILs, which involved first exposure to water bearing 3.7-5.0 wt % of NaCl (11,000-15,000 ppm of Na^+) followed by thorough mixing at elevated temperatures of 45, 60 or 75° C. […] The amount of residual NaCl and IL in the recovered aqueous phase was then measured using atomic emission spectroscopy and liquid chromatography-mass spectrometry.

Viscosity (rheometer) = assay type: physicochemical; conditions: for Viscosity: TA Instrument Discovery HR-2, temperature not stated; for Viscosity in Pa · s: 293 K
Procedure: Table 3. The viscosity was measured with Discovery Hybrid Rheometer 2.

[3] = Ionic liquid concentration / solubility in NaCl solution or brine; assay type: physicochemical
Procedure: Additional experiments were performed to measure IL concentration in the brine with different salinities. In these experiments, the brine (MX, FIG. 1) salinity is 4% or higher depending on the initial mixing ratio of the saline water and IL.

[4] = DSE desalination cycle, high-salinity / saturated / hypersaline NaCl feed
Procedure: as §1

- Viscosity in Pa · s (Viscosity (rheometer)): 0.185 ± 0.092 Pa · s
Structure (SMILES): CCCCCCCC[P+](CCCC)(CCCC)CCCC [[P4448][Bzlm]] [Tributyloctylphosphonium benzo[d]imidazol-1-ide]

- Viscosity in Pa · s (Viscosity (rheometer)): 0.433 Pa · s and 0.433 ± 0.099 Pa · s
Structure (SMILES): CCCCCCCC[P+](CCCC)(CCCC)CCCC [[P4448][Tf2N]] [Tributyloctylphosphonium bis(trifluoromethanesulfonyl)imide]

- Viscosity in Pa · s (Viscosity (rheometer)): 0.081 ± 0.059 Pa · s
Structure (SMILES): CCCCCCCCCCCCCC[P+](CCCCCC)(CCCCCC)CCCCCC [[P66614][Tf2N], Trihexyltetradecylphosphonium bis(trifluoromethanesulfonyl)imide]

- Solubility in H2O (ppm) [1]: 130-150 ppm
- Viscosity in Pa · s (Viscosity (rheometer)): 0.033 ± 0.014 Pa · s
- IL concentration in the brine (MX) ([3]; brine with 4% salinity): 4 ppm
- IL solubility in saturated NaCl solution ([3]; saturated NaCl solution): lower than 4 ppm
Structure (SMILES): CCn1cc[n+](C)c1 [[emim][Tf2N], 1-Ethyl-3-methylimidazolium bis(trifluoromethylsulfonyl)imide]

- Solubility in H2O [1]: ~270 ppm
- Viscosity (Viscosity (rheometer)): 0.056 Pa · s
- solubility in 4% NaCl solution [3]: about 26 ppm
Structure (SMILES): COC[n+]1ccn(C)c1 [[mommim][Tf2N], 1-(methoxymethyl)-3-methyl-1H-imidazol-3-ium bis(trifluoromethylsulfonyl)imide]
- highest salt rejection rate obtained ([4]; NaCl 19.6 wt % hypersaline feed): 95.8%
- Ion rejection, hypersaline ([4]; NaCl 19.6 wt %, Na+ 77,300 ppm feed, average of samples): 89.5%
- Ion rejection, seawater concentration [2]: 95.2%

The remaining lines, values behind:

Structure (SMILES): CC[n+]1ccn(C)n1 [[1,2,3-emtriz][Tf2N], 1-ethyl-3-methyl-1,2,3-triazolium bistriflimide]
- Solubility in H2O [1]: ~390 ppm
- Ion rejection, seawater concentration [2]: 92.5%
- Viscosity (Viscosity (rheometer)): 0.035 Pa · s
- solubility in 4% NaCl solution [3]: about 41 ppm

Structure (SMILES): CC(C)C[C@H](NS(=O)(=O)C(F)(F)F)C(=O)O.CCCCCCCC[P+](CCCC)(CCCC)CCCC [[P4448] I-Leu, Tributyloctylphosphonium trifluoromethanesulfonylleucine]
- Viscosity in Pa · s (Viscosity (rheometer)): 1.017 ± 0.078 Pa · s

Structure (SMILES): CCCCn1cc[n+](C)c1 [[bmim][Tf2N], 1-Butyl-3-methylimidazolium bis(trifluoromethylsulfonyl)imide]
- Solubility in H2O (ppm) [1]: <90 ppm
- Viscosity in Pa · s (Viscosity (rheometer)): 0.056 ± 0.010 Pa · s
